Assay results reported in patent US8481571B2, “Anti-coronavirus compounds” (Academia Sinica, priority 2004, dated 2013).

Tests used:
[1] = tested on: severe acute respiratory syndrome virus; assay: organism not typed; type: cell-based; settings: Vero C1008

| SMILES | EC50 [1] | inhibitory effect on cell growth (Vero E6 cells) |
| --- | --- | --- |
| CC(C)[C@H](NC(=O)OCc1ccccc1)C(=O)N[C@@H](Cc1ccccc1)[C@@H](O)[C@H](O)[C@H](Cc1ccccc1)NC(=O)[C@@H](NC(=O)OC(C)(C)C)C(C)C [Compound 1] | 0.85 to 100 µM | none of them exhibited inhibitory effect on cell growth |
| CC(C)[C@H](NC(=O)[C@H](C)NC(=O)OCc1ccccc1)C(=O)N[C@@H](Cc1ccccc1)[C@@H](O)[C@H](O)[C@H](Cc1ccccc1)NC(=O)[C@@H](NC(=O)[C@H](C)NC(=O)OCc1ccccc1)C(C)C [Compound 2] | 0.85 to 100 µM | none of them exhibited inhibitory effect on cell growth |
| CCCCCCC1=C2C[C@H]3C(C)(C)C[C@@H](OC1=O)[C@@]23C [Compound 3] | 0.85 to 100 µM | none of them exhibited inhibitory effect on cell growth |
| CCCCCC12C3=C(c4ccccc4)C(=O)O[C@@H]1CC[C@@H]2C3 (stereo partly shown) [Compound 4] | 0.85 to 100 µM | none of them exhibited inhibitory effect on cell growth |
| CC(C)=CCC[C@](C)(O)[C@H]1CC[C@@H]2[C@@H]1CC[C@H]1[C@@]2(C)CC[C@H]2C(C)(C)C(=O)CC[C@]12C [Compound 6] | 0.85 to 100 µM | none of them exhibited inhibitory effect on cell growth |
| COC(=O)CCCN1C[C@H](OCc2ccccc2)[C@@H](OCc2ccccc2)[C@H](OCc2ccccc2)[C@H]1COCc1ccccc1 [Compound 9] | 0.85 to 100 µM | none of them exhibited inhibitory effect on cell growth |
| CC[C@H]1OC(=O)[C@H](C)C(=O)[C@H](C)[C@@H](O[C@@H]2C[C@H](C)C[C@H](N(C)C)[C@H]2O)[C@@](C)(OC)C[C@@H](C)CN(C(=O)CCCn2cc(-c3ccc(C(F)(F)F)cc3)nn2)[C@H](C)[C@@H](O)[C@]1(C)O [Compound 11] | 0.85 to 100 µM | none of them exhibited inhibitory effect on cell growth |
| COC(=O)[C@H]1[C@H]2C[C@@H]3c4[nH]c5cc(OC)ccc5c4CCN3C[C@H]2C[C@@H](OC(=O)c2cc(OC)c(OC)c(OC)c2)[C@@H]1OC [Compound 13] | 0.85 to 100 µM | none of them exhibited inhibitory effect on cell growth |
| O[C@H]1[C@H](O)[C@@H](OCc2cccc(F)c2)CNC[C@@H]1OCc1cccc(F)c1 [Compound 15] | 0.85 to 100 µM | none of them exhibited inhibitory effect on cell growth |
| CC1(C)CCC2(C(=O)O)CC[C@@]3(C)C(=CCC4[C@@]5(C)CCC(O[C@@H]6OC(O)[C@@H](O)[C@@H](O)C6O[C@@H]6OC(O)[C@@H](O)[C@@H](O)C6O)C(C)(CO)C5CC[C@]43C)C2C1 (stereo partly shown) [Compound 16] | 0.85 to 100 µM | – |
| CC(C)=CCC[C@](C)(CO[C@@H]1OC(CO[C@@H]2OC(CO)[C@@H](O)[C@@H](O)C2O)[C@@H](O)[C@@H](O)C1O)C1CC[C@@]2(C)C1C(O)CC1[C@@]3(C)CCC(O[C@@H]4OC(CO)[C@@H](O)[C@@H](O)C4O[C@@H]4OC(CO)[C@@H](O)[C@@H](O)C4O)C(C)(C)C3CC[C@]12C (stereo partly shown) [Compound 17] | 0.85 to 100 µM | – |
| CC1(C)CC2C3=CCC4[C@@](C)(CCC5[C@@H](O)C(O[C@@H]6OC(CO)[C@@H](O)[C@@H](O)C6O[C@@H]6OC(CO)[C@@H](O)[C@@H](O)C6O)CC[C@@]54C)C3CC[C@@]2(C)[C@H](O)C1 (stereo partly shown) [Compound 18] | 0.85 to 100 µM | – |
| COC(=O)[C@H]1[C@H]2C[C@@H]3c4[nH]c5cc(OC)ccc5c4CCN3C[C@H]2C[C@@H](OC(=O)/C=C/c2cc(OC)c(OC)c(OC)c2)[C@@H]1OC [Compound 19] | 0.85 to 100 µM | – |
| COC(=O)C1=COC[C@H]2CN3CCc4c([nH]c5ccccc45)[C@@H]3C[C@H]12 [Compound 20] | 0.85 to 100 µM | – |
| COC(=O)[C@H]1[C@H]2C[C@H]3c4[nH]c5cc(OC)ccc5c4CCN3C[C@H]2C[C@@H](OC(=O)c2cc(OC)c(OC)c(OC)c2)[C@@H]1OC [Compound 21] | 0.85 to 100 µM | – |
| COC(=O)[C@H]1[C@H]2C[C@H]3c4[nH]c5ccccc5c4CCN3C[C@@H]2CC[C@@H]1O [Compound 22] | 0.85 to 100 µM | – |
| COC(=O)C1[C@H]2C[C@H]3c4[nH]c5ccccc5c4CCN3C[C@H]2CC[C@@H]1O (stereo partly shown) [Compound 23] | 0.85 to 100 µM | – |
| COC(=O)[C@@H]1[C@H]2C[C@H]3c4[nH]c5ccccc5c4CCN3C[C@@H]2CC[C@@H]1O [Compound 24] | 0.85 to 100 µM | – |
| Cc1cccc(C)c1OCC(=O)N[C@@H](Cc1ccccc1)C[C@H](O)[C@H](Cc1ccccc1)NC(=O)[C@H](CC(C)C)NC(=O)c1ccc([N+](=O)[O-])o1 [Compound 25] | 0.85 to 100 µM | – |
| Cc1cccc(C(=O)N[C@@H](CC(C)C)C(=O)N[C@@H](Cc2ccccc2)[C@@H](O)C[C@H](Cc2ccccc2)NC(=O)COc2c(C)cccc2C)c1 [Compound 27] | 0.85 to 100 µM | – |
| Cc1cccc(C)c1OCC(=O)N[C@@H](Cc1ccccc1)C[C@H](O)[C@H](Cc1ccccc1)NC(=O)[C@H](CC(C)C)NC(=O)CSc1ccccn1 [Compound 28] | 0.85 to 100 µM | – |
| Cc1cccc(C)c1OCC(=O)N[C@@H](Cc1ccccc1)C[C@H](O)[C@H](Cc1ccccc1)NC(=O)[C@H](CC(C)C)NC(=O)c1cc2ccccc2[nH]1 [Compound 29] | 0.85 to 100 µM | – |
| Cc1cccc(C)c1OCC(=O)N[C@@H](Cc1ccccc1)C[C@H](O)[C@H](Cc1ccccc1)NC(=O)[C@H](CC(C)C)NC(=O)CN1C(=O)CSC1=S [Compound 30] | 0.85 to 100 µM | – |
| Cc1cccc(C)c1OCC(=O)N[C@@H](Cc1ccccc1)C[C@H](O)[C@H](Cc1ccccc1)NC(=O)[C@H](CC(C)C)NC(=O)c1ccc(C(F)(F)F)cc1 [Compound 31] | 0.85 to 100 µM | – |
| COc1ccc(/C=C/C(=O)N[C@@H](CC(C)C)C(=O)N[C@@H](Cc2ccccc2)[C@@H](O)C[C@H](Cc2ccccc2)NC(=O)COc2c(C)cccc2C)cc1 [Compound 32] | 0.85 to 100 µM | – |
| Cc1cccc(C)c1OCC(=O)N[C@@H](Cc1ccccc1)C[C@H](O)[C@H](Cc1ccccc1)NC(=O)[C@H](CC(C)C)NC(=O)CCNC(=O)OC(C)(C)C [Compound 33] | 0.85 to 100 µM | – |
| Cc1cccc(C)c1OCC(=O)N[C@@H](Cc1ccccc1)C[C@H](O)[C@H](Cc1ccccc1)NC(=O)[C@H](CC(C)C)NC(=O)C1=CCOc2ccc(Cl)cc21 [Compound 34] | 0.85 to 100 µM | – |
| Cc1cccc(C)c1OCC(=O)N[C@@H](Cc1ccccc1)C[C@H](O)[C@H](Cc1ccccc1)NC(=O)[C@H](CC(C)C)NC(=O)COc1ccc2ccccc2c1 [Compound 35] | 0.85 to 100 µM | – |
